The subject of one experiment is thoracic aorta. Kind of experiment: Action to the aorta of guinea pig (relaxation of contracted spiral samples). More on the design: species or system Hartley guinea pigs. To be noted: Cavia porcellus, 37° C. The source says: Hartley guinea pigs (body weight of 300-500 g) were rendered unconscious fainted by knocking their head and fixed upwardly. A thoracic aorta was taken out to prepare spiral samples, each having size of about 2×25 mm. The sample was suspended in a Magnus tube under a load of about 1 g and upper end of the sample was connected through a silk thread to a FD pick-up to record a change in isometric tension.
Composition of Krebs-Henseleit solution:
Prior to the experiment, the sample in the Magnus tube was left to stand, as it was, for 60 to 90 minutes and in such period of time, the Krebs-Henseleit solution was exchanged to fresh one at an interval of 20 to 30 minutes.
When the contraction of the sample became constant, the compound to be tested was gradually added in a amount starting at a concentration of 10^-8, to […] to observe the contraction of the sample. Finally, papaverine was added therein, so as to make its final concentration of 2×10^-5 g/ml, to check and record also the relaxing reaction or atony caused by the papaverine.

The next experiment has as its system right atrium. Kind of experiment: Action to heart of guinea pig: right atrium (pulsations).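 For all read-outs here: Dash means no recognizable influence on pulsation rate.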 To be noted: right atrium, 32°±1° C.; for inhibition at 100 µM: Cavia porcellus, read-out: Pulsation. Also noted: species or system Hartley guinea pigs. The method, then: (§1) Hartley guinea pigs (body weight of 300-400 g) were rendered unconscious by knocking their head and fixed upwardly to exenterate their heart. […] The vessel was previously filled with the Krebs-Henseleit solution and the said mixed gas was continuously fed therein.
(§2) Samples were prepared by separating from a ventricular muscle a right and left atrium, along an auricloventricular furrow or groove from the center-line of the right and left auricles.
A contraction of the sample, due to a compound to be tested, was recorded through an FD pick-up. Concurrently, pulsations were input to a measuring unit to count and record number of the pulsations.

A further experiment deals with left atrium. Kind of experiment: Action to heart of guinea pig: left atrium (contraction power). To be noted: left atrium, 32°±1° C. Also noted: species or system Hartley guinea pigs. On the procedure: as §1, §2
The atrium was driven by contacting it with a platinum bipolar electrode attached to the cellfin and by stimulating the same with a rectangular pulse (1 Hz, 1 msec, 10 V). A movement of the sample was recorded by connecting the sample to a recorder through a silk thread and a FD pick-up.

Experiment [1] deals with blood pressure and cardiac pulsation. The experiment is described as follows: Influences upon the blood pressure and cardiac pulsation in guinea pigs. It is filed as in vivo, Hartley guinea pigs. To be noted: i.v. The source says: Influences of compounds according to the invention upon the blood pressure and cardiac pulsation were checked with use of Hartley guinea pigs, as experimental animal.

The target in the next experiment is aldose reductase (Rattus norvegicus, UniProt P07943). The experiment is described as follows: Inhibition to aldose reductase (method of Kador et al). The experiment is classed as biochemical. Conditions: read-out: IC50 (50% Inhibitory Concentration). The source says:
An ability for reducing or inhibiting activity of aldose reductase was checked, in accordance with the method of Kador et al as described in "Biophys.

The subject of the next experiment is platelet. Kind of experiment: Inhibition of platelet agglutination (rat PRP). The experiment is classed as cell-based. To be noted: agglutination caused by collagen, read-out: IC50 Collagen. The method, then:
A blood was taken from a descending aorta of the rat anesthetized with ethyl ether. To the blood, 3.8% aqueous sodium citrate was added by a volume of 1/3 and the resulting solution was centrifuged (1500 rpm) at 4° C. for 10 minutes to obtain a supernatant which was designated as "PRP (platelet rich plasma)". The remaining residue was centrifuged (3000 rpm) at 4° C. for 10 minutes to obtain a supernatant which was designated as "PPP (platelet poor plasma)". A stirrer bar and PRP (267 μl) were inserted in a cell and PPP (more than 300 μl) was charged in another cell. A transmissivity to PRP and PPP was measured and set as "0%" for the former case and as "100%" for the latter case.
After a preincubation for 1 minute, a compound to be tested was added by 3 μl and then an agglutination causing substance (collagen or ADP) was added by 30 μl at a time lapsed of 1 minute from the addition of testing compound. For a control group, 3 μl of dimethylsulfoxide was added, instead of the testing compound. A maximum value in transmissivity change after the addition of agglutination causing substance was determined and made as a platelet agglutination rate (%).

Setting [2] is: contraction by KCl 2.5×10^-2 M, read-out: IC50 KCl contraction (50% relaxing).
[3] abbreviates: contraction by norepinephrine 10^-6 g/ml, read-out: IC50 N.E. contraction (50% relaxing).
The mark [4] stands for this setting: 10 mg/kg, Example 17 marked (*) p < 0.001.
Where [5] appears, read: 10 mg/kg, Examples 16 and 17 marked (*) p < 0.001.
Setting [6] is: Cavia porcellus, 10^-4 (M), read-out: Contraction.

Like-named read-outs stand apart in the source and are kept apart here. Some results are limits rather than exact numbers.

Consider `CCNC(=O)[C@@H]1C[C@]2(NC(=O)N(CCCN3CCC(O)CC3)C2=O)c2cc(F)ccc2O1` [Example 16, (2S,4S)-N-Ethyl-1'-[3-(4-hydroxypiperidin-1-yl)propyl]-6-fluoro-2',5'-dioxospiro[chroman-4,4'-imidaxolidine]-2-carboxamide], for which the IC50 in the experiment on thoracic aorta (setting [2]) stood at 59 µM; with thoracic aorta (setting [3]) it was 5 µM. The Pulsation entry in the experiment with right atrium (10^-5 (M)) is “-”. In the experiment with right atrium (10^-4 (M)), the inhibition at 100 µM lay in the range of 10 to 20%. The Contraction result in the experiment with left atrium (10^-4 (M)) and in the experiment with left atrium (10^-5 (M)) was “-” throughout. The results for the “Change in blood pressure” value in experiment [1] (3 mg/kg) and in experiment [1] (setting [5]) were -4.0 ± 4.0% and -21.3 ± 2.4%, respectively. Moreover, the figures for the “Change in cardiac pulsation” value in experiment [1] (3 mg/kg) and in experiment [1] (setting [4]) were -1.2 ± 1.2% and -4.7 ± 4.6%, respectively.
Turning to `CCCCNC(=O)[C@@H]1C[C@]2(NC(=O)N(CCCN3CCC(O)CC3)C2=O)c2cc(F)ccc2O1` [Example 17, (2S,4S)-N-Butyl-1'-[3-(4-hydroxypiperidin-1-yl)propyl]-6-fluoro-2',5'-dioxospiro[chroman-4,4'-imidazolidine]-2-carboxamide], the IC50 in the experiment on thoracic aorta (setting [2]) came to 1 µM; in the experiment on thoracic aorta (setting [3]), 30 µM. Besides, the Pulsation entry in the experiment on right atrium (10^-5 (M)) was “-”. Besides, the inhibition at 100 µM in the experiment on right atrium (10^-4 (M)) was 10 to 20%; in the experiment with left atrium (setting [6]) it was above 20%. The inhibition at 10 µM with left atrium (Cavia porcellus, 10^-5 (M), read-out: Contraction) was 10 to 20%. For the same molecule, the “Change in blood pressure” value in experiment [1] (3 mg/kg) is given as -3.0 ± 3.0%; in experiment [1] (setting [5]), -43.8 ± 4.9%. Besides, the “Change in cardiac pulsation” value in experiment [1] (3 mg/kg) is reported as -1.1 ± 1.1%; in experiment [1] (setting [4]) it was -48.9 ± 2.2%.
Take `NC(=O)[C@@H]1C[C@]2(NC(=O)N(CCCN3CCC(O)CC3)C2=O)c2cc(F)ccc2O1` [Example 15, (2S,4S)-1'-[3-(4-Hydroxypiperidin-1-yl)propyl]-6-fluoro-2',5'-dioxospiro[chroman-4,4'-imidazolidine]-2-carboxamide]: the IC50 with thoracic aorta (setting [2]) is 8 µM; with thoracic aorta (setting [3]), 2 µM. Also, the Pulsation entry with right atrium (10^-4 (M)) and in the experiment with right atrium (10^-5 (M)) was “-” throughout. For the same molecule, the Contraction entry in the experiment on left atrium (10^-4 (M)) and with left atrium (10^-5 (M)) was “-” each time. Moreover, the “Change in blood pressure” value is listed as -2.6 ± 1.8% in experiment [1] (3 mg/kg) and -12.2 ± 5.6% in experiment [1] (setting [5]). Moreover, the entries for the “Change in cardiac pulsation” value in experiment [1] (3 mg/kg) and in experiment [1] (setting [4]) were 0.0 ± 0.0% and -5.4 ± 2.9%, respectively.
Turning to `O=C1NC(=O)[C@@]2(C[C@@H](C(=O)NNc3ccccc3)Oc3ccc(F)cc32)N1` [Example 3, (2S,4S)-6-Fluoro-2',5'-dioxospiro[chroman-4,4'-imidazolidine]-2-(N'-phenyl)carbohydrazide], the IC50 at aldose reductase was 0.022 µM; in the experiment with platelet it was 140 µM; with thoracic aorta (setting [2]), 30 µM; in the experiment on thoracic aorta (setting [3]) it was 0.8 µM. Moreover, the Pulsation entry in the experiment on right atrium (10^-4 (M)) and in the experiment with right atrium (10^-5 (M)) was “-” each time. Also, the Contraction entry in the experiment with left atrium (10^-5 (M)) was “-”. Moreover, in the experiment on left atrium (setting [6]), the inhibition at 100 µM was 10 to 20%.
As for `COc1ccccc1N1CCN(CCNC(=O)[C@@H]2C[C@]3(NC(=O)NC3=O)c3cc(F)ccc3O2)CC1` [Example 9, (2S,4S)-N-{2-[4-(2-Methoxyphenyl)piperazin-1-yl]ethyl}-6-fluoro-2',5'-dioxospiro[chroman-4,4'-imidazolidine]-2-carboxamide], the IC50 on aldose reductase was 0.24 µM; in the experiment on platelet, 660 µM; in the experiment with thoracic aorta (setting [2]), above 1000 µM; in the experiment with thoracic aorta (setting [3]), above 1000 µM. The Pulsation result with right atrium (10^-4 (M)) and in the experiment with right atrium (10^-5 (M)) was “-” in each case. Further, the Contraction result with left atrium (10^-5 (M)) is “-”. The inhibition at 100 µM with left atrium (setting [6]) is 10 to 20%.
